What follows are molecules tested against PARP7 (Homo sapiens (Human), UniProt Q7Z3E1) (assay: Enzymatic assay for inhibition of PARP7: TR-FRET displacement of biotinylated Probe A from the TIPARP active site). Settings: Table A-1.
Format: binding
Method in brief: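 Compound dose-response series were incubated with TIPARP and biotinylated Probe A, with a final 30 min step at 25 °C. TR-FRET was read at 320 nm excitation, 615/665 nm emission and 90 μs delay, using the 665/615 ratio to measure complex formation. % inhibition was fitted with a floating or fixed (1) Hill coefficient.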

Sequence of PARP7 (Q7Z3E1 whole entry): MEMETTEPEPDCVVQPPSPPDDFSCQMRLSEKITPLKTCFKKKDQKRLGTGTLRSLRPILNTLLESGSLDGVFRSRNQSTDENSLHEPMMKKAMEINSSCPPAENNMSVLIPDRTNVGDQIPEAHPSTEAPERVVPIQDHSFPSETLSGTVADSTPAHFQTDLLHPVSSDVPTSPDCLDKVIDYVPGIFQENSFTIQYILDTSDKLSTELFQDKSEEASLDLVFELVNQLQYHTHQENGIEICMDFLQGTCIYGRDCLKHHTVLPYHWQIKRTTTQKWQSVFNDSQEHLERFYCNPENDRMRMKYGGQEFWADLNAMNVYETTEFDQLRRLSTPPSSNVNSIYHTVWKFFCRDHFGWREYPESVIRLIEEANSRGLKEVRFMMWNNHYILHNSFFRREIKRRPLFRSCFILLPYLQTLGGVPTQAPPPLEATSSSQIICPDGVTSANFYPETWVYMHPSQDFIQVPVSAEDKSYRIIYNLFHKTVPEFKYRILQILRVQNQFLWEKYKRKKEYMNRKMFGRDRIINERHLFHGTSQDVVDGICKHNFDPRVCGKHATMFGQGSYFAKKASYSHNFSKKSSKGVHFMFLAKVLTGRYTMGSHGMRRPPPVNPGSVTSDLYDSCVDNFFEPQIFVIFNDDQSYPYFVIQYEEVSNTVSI

SMILES	IC50
CN(C)CCOc1cc2c(cc1F)CN(c1cn[nH]c(=O)c1C(F)(F)F)C2 [Example 14, 5-[5-[2-(dimethylamino)ethoxy]-6-fluoro-2,3-dihydro-1H-isoindol-2-yl]-4-(trifluoromethyl)-2,3-dihydropyridazin-3-one; formic acid]	< 100 nM
O=C(C[C@H]1CC[C@@H]([C@@H]2CCCN2c2cn[nH]c(=O)c2C(F)(F)F)O1)N1CCN(c2ncc(Cl)cn2)CC1 [Example 147B, 5-[(2S)-2-[(2S,5R)-5-[2-[4-(5-chloropyrimidin-2-yl)piperazin-1-yl]-2-oxoethyl]oxolan-2-yl]pyrrolidin-1-yl]-4-(trifluoromethyl)-2,3-dihydropyridazin-3-one]	< 100 nM
CN(c1cccc2c1CN(c1cn[nH]c(=O)c1C(F)(F)F)C2)C1CCNCC1 [Example 302, 5-(4-(Methyl(piperidin-4-yl)amino)isoindolin-2-yl)-4-(trifluoromethyl)pyridazin-3(2H)-one]	100 to 1000 nM
N#Cc1ccc(N2CCN(C(=O)c3cncc(OC[C@@H]4CCCN4c4cn[nH]c(=O)c4C(F)(F)F)n3)CC2)nc1 [Example 74, 6-[4-[(6-[[(2S)-1-[6-oxo-5-(trifluoromethyl)-1,6-dihydropyridazin-4-yl]pyrrolidin-2-yl]methoxy]pyrazin-2-yl)carbonyl]piperazin-1-yl]pyridine-3-carbonitrile]	< 100 nM
CC(=O)N1CCN(C(=O)c2cccc(OC[C@@H]3c4ccccc4CN3c3cn[nH]c(=O)c3C(F)(F)F)c2)CC1 [Example 407, (S)-5-(1-((3-(4-Acetylpiperazine-1-carbonyl)phenoxy)methyl)isoindolin-2-yl)-4-(trifluoromethyl)pyridazin-3(2H)-one]	< 100 nM
N#Cc1ccc(N2CCN(C(=O)C34C5C6C3C3C4C5C63COC[C@@H]3CCCN3c3cn[nH]c(=O)c3C(F)(F)F)CC2)nc1 (stereo partly drawn) [Example 479, (S)-6-(4-(4-(((1-(6-Oxo-5-(trifluoromethyl)-1,6-dihydropyridazin-4-yl)pyrrolidin-2-yl)methoxy)methyl)cubane-1-carbonyl)piperazin-1-yl)nicotinonitrile]	100 to 1000 nM
COC[C@H](COCCC(=O)N1CCN(c2ncc(C(F)(F)F)cn2)CC1)Sc1cn[nH]c(=O)c1C(F)(F)F (single isomer, unassigned) [Example 692]	100 to 1000 nM
O=C(CCOC[C@@H]1CCCN1c1cn[nH]c(=O)c1C(F)(F)F)NC1CCC(Oc2ccccn2)CC1 (stereo partly drawn) [Example 84, 3-[[(2S)-1-[6-oxo-5-(trifluoromethyl)-1,6-dihydropyridazin-4-yl]pyrrolidin-2-yl]methoxy]-N-[4-(pyridin-2-yloxy)cyclohexyl]propanamide]	100 to 1000 nM
O=C(c1cccc(OC[C@@H]2c3ccccc3CN2c2cn[nH]c(=O)c2C(F)(F)F)c1)N1CCn2c(nnc2C(F)(F)F)C1 [Example 373, (S)-4-(Trifluoromethyl)-5-(1-((3-(3-(trifluoromethyl)-5,6,7,8-tetrahydro-[1,2,4]triazolo[4,3-a]pyrazine-7-carbonyl)phenoxy)methyl)isoindolin-2-yl)pyridazin-3(2H)-one]	< 100 nM
N#Cc1ccc(N2CCN(C(=O)c3cccc(OC[C@H]4c5ccccc5CN4c4cn[nH]c(=O)c4C(F)(F)F)c3)CC2)nc1 (single isomer, unassigned) [Example 18 Isomer A]	100 to 1000 nM
CN1CCC(Oc2ccc3c(c2)CN(c2cn[nH]c(=O)c2C(F)(F)F)C3)C1 (stereo not drawn) [Example 238, 5-(5-((1-Methylpyrrolidin-3-yl)oxy)isoindolin-2-yl)-4-(trifluoromethyl)pyridazin-3(2H)-one]	< 100 nM
O=c1[nH]ncc(N2Cc3cccc(OC4CCOC4)c3C2)c1C(F)(F)F (stereo not drawn) [Example 203, 5-(4-((Tetrahydrofuran-3-yl)oxy)isoindolin-2-yl)-4-(trifluoromethyl)pyridazin-3(2H)-one]	< 100 nM
N#Cc1ccc(N2C[C@H]3C[C@@H]2CN3C(=O)CCOC[C@@H]2CCCN2c2cn[nH]c(=O)c2C(F)(F)F)nc1 [Example 112B, 6-[(1R,4R)-5-(3-(((S)-1-(6-oxo-5-(trifluoromethyl)-1,6-dihydropyridazin-4-yl)pyrrolidin-2-yl)methoxy)propanoyl)-2,5-diaza-bicyclo[2.2.1]heptan-2-yl)nicotinonitrile]	≥ 1000 nM
CC(=O)N1CCN(c2cccc3c2CN(c2cn[nH]c(=O)c2C(F)(F)F)C3)CC1 [Example 294, 5-(4-(4-Acetylpiperazin-1-yl)isoindolin-2-yl)-4-(trifluoromethyl)pyridazin-3(2H)-one]	< 100 nM
CCc1c(N2Cc3cccc(OCCO)c3C2)cn[nH]c1=O [Example 185, 4-Ethyl-5-(4-(2-hydroxyethoxy)isoindolin-2-yl)pyridazin-3(2H)-one]	≥ 1000 nM
O=C(CCOC[C@@H](Nc1cn[nH]c(=O)c1C(F)(F)F)C1CC1)N1CCN(c2ncc(C(F)(F)F)cn2)CC1 [Example 606, (S)-5-[(1-Cyclopropyl-2-[3-oxo-3-[4-[5-(trifluoromethyl)pyrimidin-2-yl)piperazin-1-yl]propoxy]-ethyl]amino]-4-(trifluoromethyl)pyridazin-3(2H)-one]	< 100 nM
N#Cc1ccc(N2CCN(C(=O)CCOC[C@H]3c4ncccc4CN3c3cn[nH]c(=O)c3Cl)CC2)nc1 [Example 432, (R)-6-(4-(3-((6-(5-Chloro-6-oxo-1,6-dihydropyridazin-4-yl)-6,7-dihydro-5H-pyrrolo[3,4-b]pyridin-7-yl)methoxy)propanoyl)piperazin-1-yl)nicotinonitrile]	100 to 1000 nM

SMILES	IC50
N#Cc1ccc(N2CCN(C(=O)C[C@@H]3CC[C@@H](COc4cn[nH]c(=O)c4C(F)(F)F)O3)CC2)nc1 (single isomer, unassigned) [Example 580 Isomer A]	100 to 1000 nM
N#Cc1cnc(N2CCN(C(=O)c3cccc(OCC4CCCN4c4cn[nH]c(=O)c4C(F)(F)F)c3)CC2)nc1 (stereo not drawn) [Example 437, 2-(4-(3-((1-(6-Oxo-5-(trifluoromethyl)-1,6-dihydropyridazin-4-yl)pyrrolidin-2-yl)methoxy)benzoyl)piperazin-1-yl)pyrimidine-5-carbonitrile]	< 100 nM
O=c1[nH]ncc(N2Cc3ccc(CNc4ccncc4)cc3C2)c1C(F)(F)F [Example 17, 5-(5-[[(pyridin-4-yl)amino]methyl]-2,3-dihydro-1H-isoindol-2-yl)-4-(trifluoromethyl)-2,3-dihydropyridazin-3-one]	< 100 nM
CC(=O)N1CCC(Oc2cc3c(cc2F)CN(c2cn[nH]c(=O)c2C(F)(F)F)C3)CC1 [Example 1, 5-[5-[(1-acetylpiperidin-4-yl)oxy]-6-fluoro-2,3-dihydro-1 H-isoindol-2-yl]-4-(trifluoromethyl)-2,3-dihydropyridazin-3-one]	< 100 nM
C[C@@H](COCCS(=O)(=O)N1CCN(c2ncc(C(F)(F)F)s2)CC1)Nc1cn[nH]c(=O)c1Br [Example 732, (S)-4-Bromo-5-((1-(2-((4-(5-(trifluoromethyl)thiazol-2-yl)piperazin-1-yl)sulfonyl)ethoxy)propan-2-yl)amino)pyridazin-3(2H)-one]	< 100 nM
COC[C@H](CO[C@H](C)CC(=O)N1CCN(c2ccc(C#N)cn2)CC1)Oc1cn[nH]c(=O)c1C(F)(F)F (single isomer, unassigned) [Example 571 Isomer C]	≥ 1000 nM
C[C@@H](COC[C@@H](N)CC(=O)N1CCN(c2ncc(C(F)(F)F)cn2)CC1)Nc1cn[nH]c(=O)c1C(F)(F)F (single isomer, unassigned) [Example 617 Isomer B]	< 100 nM
O=C(CCOC[C@H](Cc1ccncc1)Nc1cn[nH]c(=O)c1C(F)(F)F)N1CCN(c2ncc(C(F)(F)F)cn2)CC1 [Example 647, (S)-5-((1-(3-Oxo-3-(4-(5-(trifluoromethyl)pyrimidin-2-yl)piperazin-1-yl)propoxy)-3-(pyridin-4-yl)propan-2-yl)amino)-4-(trifluoromethyl)pyridazin-3(2H)-one]	< 100 nM
COC[C@H](COCCC(=O)N1CCN(c2ccc(C#N)cn2)CC1)Oc1cn[nH]c(=O)c1C(F)(F)F (single isomer, unassigned) [Example 532 Isomer B]	100 to 1000 nM
CC(=O)N1CCC(Oc2ccc3c(n2)CN(c2cn[nH]c(=O)c2C(F)(F)F)C3)CC1 [Example 333, 5-(2-((1-Acetylpiperidin-4-yl)oxy)-5,7-dihydro-6H-pyrrolo[3,4-b]pyridin-6-yl)-4-(trifluoromethyl)pyridazin-3(2H)-one]	< 100 nM
C[C@H](COCCC(=O)N1CCN(c2ncc(Cl)cn2)CC1)Oc1cn[nH]c(=O)c1C(F)(F)F [Example 543 Isomer D, (R)-5-(1-(3-(4-(5-chloropyrimidin-2-yl)piperazin-1-yl)-3-oxopropoxy)propan-2-yloxy)-4-(trifluoromethyl)pyridazin-3(2H)-one]	100 to 1000 nM
O=c1[nH]ncc(N2Cc3ccccc3C2CO)c1Cl (stereo not drawn) [Example 191, 4-Chloro-5-(1-(hydroxymethyl)isoindolin-2-yl)pyridazin-3(2H)-one]	≥ 1000 nM
C[C@@H](COC[C@@H]1CCCN1c1cn[nH]c(=O)c1C(F)(F)F)CC(=O)N1CCN(c2ccc(C#N)cn2)CC1 [Example 128A]	< 100 nM
O=C(c1cncc(OC[C@@H]2c3ccccc3CN2c2cn[nH]c(=O)c2C(F)(F)F)c1)N1CCN(c2ccc(Cl)cn2)CC1 [Example 388, (S)-5-(1-(((5-(4-(5-Chloropyridin-2-yl)piperazine-1-carbonyl)pyridin-3-yl)oxy)methyl)isoindolin-2-yl)-4-(trifluoromethyl)pyridazin-3(2H)-one]	< 100 nM
CNCCOc1ccc2c(n1)CN(c1cn[nH]c(=O)c1C(F)(F)F)C2 [Example 318, 5-(2-(2-(Methylamino)ethoxy)-5,7-dihydro-6H-pyrrolo[3,4-b]pyridin-6-yl)-4-(trifluoromethyl)pyridazin-3(2H)-one]	100 to 1000 nM
O=c1[nH]ncc(N2Cc3ccccc3C2)c1C(F)(F)F [Example 160, 5-(Isoindolin-2-yl)-4-(trifluoromethyl)pyridazin-3(2H)-one]	< 100 nM

From patent US10550105B2 (Ribon Therapeutics Inc., priority 2018, dated 2020)
